Assay [1] addresses T1, purified recombinant mouse ENPP1 (Mus musculus, UniProt P06802).
T1 sequence (P06802 1-906): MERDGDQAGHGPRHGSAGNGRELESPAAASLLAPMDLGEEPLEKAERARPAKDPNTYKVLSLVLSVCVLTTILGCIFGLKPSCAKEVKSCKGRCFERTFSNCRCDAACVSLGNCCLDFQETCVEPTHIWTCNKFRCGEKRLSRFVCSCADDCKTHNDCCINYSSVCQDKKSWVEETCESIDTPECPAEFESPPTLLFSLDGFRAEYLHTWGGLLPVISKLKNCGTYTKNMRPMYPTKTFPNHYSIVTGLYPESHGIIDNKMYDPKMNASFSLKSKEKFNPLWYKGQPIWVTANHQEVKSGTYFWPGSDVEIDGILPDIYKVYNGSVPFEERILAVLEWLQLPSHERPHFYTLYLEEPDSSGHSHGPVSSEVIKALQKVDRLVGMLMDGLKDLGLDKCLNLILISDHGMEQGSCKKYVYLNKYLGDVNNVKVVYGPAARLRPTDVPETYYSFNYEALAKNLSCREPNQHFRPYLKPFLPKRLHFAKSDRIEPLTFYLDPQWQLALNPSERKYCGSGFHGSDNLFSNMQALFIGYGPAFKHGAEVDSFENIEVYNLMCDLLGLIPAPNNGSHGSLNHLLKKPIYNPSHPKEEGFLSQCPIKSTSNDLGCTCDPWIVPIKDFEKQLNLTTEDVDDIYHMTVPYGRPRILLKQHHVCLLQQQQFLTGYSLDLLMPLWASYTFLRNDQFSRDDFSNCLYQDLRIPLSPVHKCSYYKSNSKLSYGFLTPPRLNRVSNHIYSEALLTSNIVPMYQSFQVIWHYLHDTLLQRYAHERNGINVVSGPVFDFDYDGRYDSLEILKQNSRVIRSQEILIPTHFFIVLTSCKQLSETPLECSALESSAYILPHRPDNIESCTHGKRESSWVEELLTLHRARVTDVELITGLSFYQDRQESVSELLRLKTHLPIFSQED
As to the kind of experiment: ENPP1 activity assay using TMP-pNP as a substrate. Conditions: TMP-pNP 2 μM, mouse ENPP1 0.5 nM, pH 7.5, room temperature. Type of assay: biochemical. On the procedure: Selected compounds of Table 1, Table 2 and other derivatives were prepared and assessed in an ENPP1 activity assay using thymidine monophosphate paranitrophenol (TMP-pNP) as a substrate. Enzyme reactions were prepared with TMP-pNP (2 μM), 5-fold dilutions of ENPP1 inhibitor, and purified recombinant mouse ENPP1 (0.5 nM) in 100 mM Tris, 150 mM NaCl, 2 mM CaCl2, 200 μM ZnCl2, pH 7.5 at room temperature. Reaction progress was monitored by measuring absorbance at 400 nm of paranitrophenolate produced by the reaction for 20 minutes.

In assay [2] the target is T1, purified recombinant mouse ENPP1. As to the kind of experiment: ENPP1 enzyme activity assay using 32P cGAMP as a substrate (TLC). Type of assay: biochemical. How it is done:
Compounds were also assessed in an ENPP1 enzyme activity assay using ^32P cGAMP as a substrate. Radiolabeled ^32P cGAMP was synthesized by incubating unlabeled ATP (1 mM) and GTP (1 mM) doped with ^32P-ATP with 2 μM purified recombinant porcine cGAS in 20 mM Tris pH 7.5, 2 mM MgCl2, 100 μg/mL herring testes DNA) overnight at room temperature, and the remaining nucleotide starting materials were degraded with alkaline phosphatase for 4 h at 37° C. The probe ^32P-cGAMP (5 μM) was incubated with purified recombinant mouse ENPP1 (20 nM) or whole cell lysates in 100 mM Tris, 150 mM NaCl, 2 mM CaCl2, 200 μM ZnCl2, pH 7.5 at room temperature for 5 hours. To generate enzyme inhibition curves, 5-fold dilutions of ENPP1 inhibitor were included in the reaction. […] Plates were exposed on a phosphor screen (Molecular Dynamics) and imaged on a Typhoon 9400 and the ^32P signal was quantified using ImageJ.

For assay [3], the system named is 4T1 tumor. As to the kind of experiment: 4T1 tumor model: IR with compound 1, cGAMP and/or anti-CTLA-4, tumor volume and survival. The settings on record: 20 Gy IR, single agent intratumorally on day 2, 4 and 7 after IR (100 μL of 100 μM compound 1 or 10 μg cGAMP). It counts as in vivo, mouse. How it is done: Tumor volumes were recorded every other day.
The test system of assay [4] is 4T1 tumor. As to the kind of experiment: Tumor-associated dendritic cells in mouse 4T1 tumor model (FACS). Conditions: intratumoral 100 μL of 1 mM compound 1.
Procedure: Seven- to nine-week-old female Balb/c mice (Jackson Laboratories) were inoculated with 1×10^6 4 T1-luciferase tumor cells suspended in 50 μL of PBS into the mammary fat pad. […] Anaesthetized animals were shielded with a 3.2 mm lead shield with a 15×20 mm aperture where the tumor was placed. […] On the next day, the tumor was extracted and incubated in RPMI+ 10% FBS with 20 μg/mL DNase I type IV (Sigma-Aldrich) and 1 mg/mL Collagenase from Clostridium histolyticum (Sigma-Aldrich) at 37° C. for 30 min. […] Cells were stained with Live/Dead fixable near-IR dead cell staining kit (Thermo Fisher Scientific), Fc-blocked for 10 min using TruStain fcX and subsequently antibody-stained with CD11c, CD45, and I-A/I-E (all Biolegend). Cells were analyzed using an SH800S cell sorter (Sony) or an LSR II (BD Biosciences).
Mean±SEM (n=2). **P=0.004 (Student's t test).
Where [5] appears, read: 32P-cGAMP 5 μM, mouse ENPP1 20 nM, pH 7.5, room temperature, 5 hours, read-out: IC50 values (cGAMP; μM).

Procedure for human CD14+ monocytes: Primary human peripheral blood mononucleocyte cells (PBMCs) were isolated by subjecting enriched buffy coat from whole blood to a Percoll density gradient. CD14^+ monocytes were isolated using CD14^+ MicroBeads (Miltenyi). CD14^+ monocytes were cultured in RMPI supplemented with 2% human serum and 100 U/mL penicillin-streptomycin. […] 24-26 hours following supernatant transfer, total RNA was extracted using Trizol (Thermo Fisher Scientific) and reverse transcribed with Maxima H Minus Reverse Transcriptase (Thermo Fisher Scientific). Real-time RT-PCR was performed in duplicate with AccuPower 2X Greenstar qPCR Master Mix (Bioneer) on a 7900HT Fast Real-Time PCR System (Applied Biosystems). Data were normalized to CD14 expression for each sample. Fold induction was calculated using ΔΔCt.
Supernatant from these cells was transferred to primary CD14^+ human PBMCs. IFNB1 mRNA levels were normalized to CD14 and the fold induction was calculated relative to untreated CD14^+ cells.

For `Cc1nccn1-c1cc(N2CCC(CCP(=O)(O)O)CC2)ncn1` [Compound 93], the concentration for half-maximal inhibition (IC50) in assay [1] is 0.05 to 0.5 µM. As to `O=P(O)(O)CCC1CCN(c2ncnc3cc4c(cc23)OCCO4)CC1` [Compound 13], the IC50 in assay [1] was in the range of 0.5 to 5 µM. Consider `COc1ccc2c(N3CCC(CCP(=O)(O)O)CC3)ncnc2c1` [Compound 10], for which the results for the half-maximal inhibitory concentration (IC50) in assay [2] (setting [5]) and in assay [1] were 0.05 to 0.5 µM and less than 0.005 µM, respectively.

For `COc1ccc2c(N3CCC(CCP(=O)(O)O)CC3)nc(C)nc2c1` [Compound 12], the results for the IC50 in assay [2] (setting [5]) and in assay [1] were 0.05 to 0.5 µM and 0.005 to 0.05 µM, respectively. Consider `O=P(O)(O)CCC1CCN(c2ncnc3ccc(O)cc23)CC1` [Compound 23], for which the IC50 in assay [1] lay in the range of 0.5 to 5 µM. Turning to `Nc1nc2c(ncn2[C@@H]2O[C@@H]3COP(=O)(O)O[C@H]4[C@@H](O)[C@H](n5cnc6c(N)ncnc65)O[C@@H]4COP(=O)(O)O[C@@H]2[C@@H]3O)c(=O)[nH]1` [cGAMP, cyclic guanosine monophosphate-adenosine monophosphate], the “tumor shrinkage effect over IR treatment” value in the assay with 4T1 tumor [3] is listed as “had no effect over IR treatment”. For the compound `COc1cc2ncnc(N3CCC(CCP(=O)(O)O)CC3)c2cc1OC` [Compound 1], the “extracellular cGAMP levels” value in the assay with human CD14+ monocytes (293T cGAS ENPP1low cells with transient overexpression of ENPP1) was “rescued extracellular cGAMP levels”. For the same compound, the “CD14+ IFNB1 expression” value in the assay with human CD14+ monocytes (supernatant of ENPP1-overexpressing 293T cGAS ENPP1low cells transferred to CD14+ monocytes) was “induced CD14^+ IFNB1 expression”. Besides, the “tumor associated CD11c+ population” value in the assay with 4T1 tumor [4] (tumors pretreated with 20 Gy IR) is listed as “increased the tumor associated CD11c^+ population”. The tumor-associated leukocyte compositions entry in the assay with 4T1 tumor [4] (without IR, vs PBS control) was “did not change tumor-associated leukocyte compositions compared to the PBS control”.

Regarding `O=P(O)(O)CCC1CCN(c2ncnc3cccc(F)c23)CC1` [Compound 70], the IC50 in assay [1] was 0.5 to 5 µM.

As for `COc1cc2nccc(N3CCC(CCP(=O)(O)O)CC3)c2cc1OC` [Compound 71], the IC50 in assay [1] was in the range of 0.05 to 0.5 µM. `O=P(O)(O)CCC1CCN(c2ncnc3nc[nH]c23)CC1` [Compound 68]: in assay [1], the IC50 was more than 5 µM.

As to `COc1cccc2c(N3CCC(CCP(=O)(O)O)CC3)ncnc12` [Compound 76], the half-inhibitory concentration (IC50) in assay [2] is 0.005 to 0.05 µM; in assay [1] it was less than 0.005 µM. As for `COc1cc2ncnc([C@H]3CC[C@H](CCP(=O)(O)O)CC3)c2cc1OC` [Compound 82], the IC50 in assay [1] was 0.005 to 0.05 µM. On to `COc1ccc2c(N3CCC(CCP(=O)(O)O)CC3)nc(/C=C/c3cccnc3)nc2c1` [Compound 18], for which the values for the IC50 in assay [2] (setting [5]) and in assay [1] were 0.05 to 0.5 µM and less than 0.005 µM, respectively. For the compound `COc1cc(OC)c2ncnc(N3CCC(CCP(=O)(O)O)CC3)c2c1` [Compound 7], the 50% inhibitory concentration (IC50) in assay [1] lay in the range of 0.05 to 0.5 µM. Take `COc1ccc2ncnc(N3CCC(CCP(=O)(O)O)CC3)c2c1` [Compound 19]: the half-inhibitory concentration (IC50) in assay [1] was in the range of 0.005 to 0.05 µM.

Turning to `CNC(=O)NCC1CCN(c2ncnc3cc(OC)c(OC)cc23)CC1` [Compound 73], the half-inhibitory concentration (IC50) in assay [1] was more than 5 µM. In the case of `O=P(O)(O)CCC1CCN(c2ncnc3cc(O)ccc23)CC1` [Compound 5], the IC50 in assay [1] was in the range of 0.05 to 0.5 µM. The same measure, in the same setting: then `COc1cc2ncnc(N3CCC(COP(O)(O)=S)CC3)c2cc1OC` [Compound 67], with 0.005 to 0.05 µM; and `Nc1ccc2c(N3CCC(CCP(=O)(O)O)CC3)ncnc2c1` [Compound 30], with 0.05 to 0.5 µM. On the same count and under the same terms, then `COc1ccc2c(N3CCC(CCP(=O)(O)O)CC3)ncnc2c1OC` [Compound 22], with 0.05 to 0.5 µM.

With `COc1cc2ncnc(N3CCC(COP(=O)(O)O)CC3)c2cc1OC` [Compound 60], the IC50 in assay [1] is 0.05 to 0.5 µM.

With `COc1cc2ncnc(N3CCC(CC(=O)NO)CC3)c2cc1OC` [Compound 61], in assay [1], the half-maximal inhibitory concentration (IC50) lay within 0.5 to 5 µM. The same measure, in the same setting: the same measure for `COc1ccc(OC)c2c(N3CCC(CCP(=O)(O)O)CC3)ncnc12` [Compound 16]: 0.5 to 5 µM; for `COc1cc2ncnc(N3CCC(CCB(O)O)CC3)c2cc1OC` [Compound 87]: 0.05 to 0.5 µM. For the compound `COc1cc2ncnc(N3CCN(C(=O)CP(=O)(O)O)CC3)c2cc1OC` [Compound 75], the results for the IC50 in assay [2] (setting [5]) and in assay [1] were 0.5 to 5 µM and 0.05 to 0.5 µM, respectively. For the compound `COc1cccc2c(N3CCC(COP(=O)(O)O)CC3)ncnc12` [Compound 86], the IC50 in assay [1] was less than 0.005 µM. Consider `COc1cc2ncnc(N3CCC(CCP(O)(O)=S)CC3)c2cc1OC` [Compound 83], for which the concentration for half-maximal inhibition (IC50) in assay [1] is 0.05 to 0.5 µM. Still for that read-out and setting: the same measure for `CC(C)Oc1ccc2c(N3CCC(CCP(=O)(O)O)CC3)ncnc2c1` [Compound 11]: more than 5 µM; for `Cc1cnc(C)n1-c1cc(N2CCN(CCP(=O)(O)O)CC2)ncn1` [Compound 103]: 0.05 to 0.5 µM; for `COc1ccc2c(N3CCN(CCP(=O)(O)O)CC3)ncnc2c1` [Compound 42]: more than 5 µM. Turning to `COc1ccc2c(N3CCC(CCP(=O)(O)O)CC3)ncnc2c1OC` [Compound 25], the 50% inhibitory concentration (IC50) in assay [1] is 0.005 to 0.05 µM. The same measure, in the same setting: the same measure for `COc1cc2ncnc([C@H]3CC[C@@H](CCP(=O)(O)O)CC3)c2cc1OC` [Compound 81]: 0.005 to 0.05 µM; for `COc1cccc2c(N3CCC(CCP(O)(O)=S)CC3)ncnc12` [Compound 92]: less than 0.005 µM; for `COc1cc2ncnc(N3CCC(CP(=O)(O)O)CC3)c2cc1OC` [Compound 88]: 0.05 to 0.5 µM. Same read-out and setting: then `COc1cc2ccnc(N3CCC(CCP(=O)(O)O)CC3)c2cc1OC` [Compound 38], with 0.05 to 0.5 µM; and `O=P(O)(O)CCC1CCN(c2ncnc3cc(Cl)ccc23)CC1` [Compound 84], with 0.05 to 0.5 µM.

By IC50 is commonly meant the concentration that gives 50% inhibition.
